Calls of active or inactive are those of the source. The rule behind the calls is not given here.
How the values were obtained:
MDA-MB-468 [1] = test: Induction of mitochondrial dysfunction in human MDA-MB-468 cells assessed as reduction in oxygen consumption rate (OCR) at 25 nM; type: functional, cell-based
[2] = Toxicity in female BALB/c mouse implanted with mouse 4T1 cells assessed as kidney inflammation at 10 mg/kg, iv; type: organism-based; conditions: in vivo
[3] = Toxicity in female BALB/c mouse implanted with mouse 4T1 cells assessed as spleen abnormality at 10 mg/kg, iv; type: organism-based; conditions: in vivo
[4] = Toxicity in female BALB/c mouse implanted with mouse 4T1 cells assessed as lung abnormality at 10 mg/kg, iv; type: organism-based; conditions: in vivo
MDA-MB-468 [5] = test: Induction of ROS production in human MDA-MB-468 cells assessed as increase in fluorescent signal at 25 nM incubated for 6 hrs by DCFH-DA staining based flow cytometry analysis; type: functional, cell-based
4T1 [6] = test: Antitumor activity against mouse 4T1 cells implanted in female BALB/c mouse assessed as increase in phospho eIF2alpha level in tumor at 10 mg/kg, iv administered upto 5 days by Western blot analysis; type: functional, organism-based; conditions: time <= 5.0 day
Cisplatin-resistant 4T1 [7] = test: Antiproliferative activity against mouse Cisplatin-resistant 4T1 cells assessed as reduction in cell viability incubated for 48 hrs by MTT assay; type: functional, cell-based
MDA-MB-468 [8] = test: Induction of apoptosis in human MDA-MB-468 cells assessed as increase in activation of caspase at 25 nM by Western blot analysis; type: functional, cell-based; conditions: time 24.0 hrs
Cisplatin-resistant 4T1 [9] = test: Antitumor activity against mouse Cisplatin-resistant 4T1 cells implanted in female BALB/c mouse assessed as reduction in tumor volume at 10 mg/kg, ip; type: functional, organism-based
4T1 [10] = test: Antitumor activity against mouse 4T1 cells implanted in female BALB/c mouse at 10 mg/kg, iv administered upto 5 days; type: functional, organism-based; conditions: time <= 5.0 day
MDA-MB-468 [11] = test: Induction of endoplasmic reticulum (ER) stress-mediated apoptosis in human MDA-MB-468 cells assessed as increase in ATF4 expression at 25 nM measured at 2 hrs by Western blot analysis; type: functional, cell-based
MDA-MB-468 [12] = test: Induction of endoplasmic reticulum (ER) stress-mediated apoptosis in human MDA-MB-468 cells assessed as increase in CHOP expression at 25 nM measured at 2 hrs by Western blot analysis; type: functional, cell-based
4T1 [13] = test: Antitumor immunity against mouse 4T1 cells implanted in female BALB/c mouse model assessed as increase in proportion of tumor infiltrating CD8+ T cell at 10 mg/kg, iv administered upto 5 days by flow cytometry analysis; type: functional, organism-based; conditions: time <= 5.0 day
[14] = Toxicity in female BALB/c mouse implanted with mouse 4T1 cells assessed as heart inflammation at 10 mg/kg, iv; type: organism-based; conditions: in vivo
MDA-MB-468 [15] = test: Induction of ROS production in human MDA-MB-468 cells assessed as increase in ROS level at 25 nM incubated for 6 hrs by DCFH-DA staining based confocal microscopic analysis; type: functional, cell-based
[16] = Toxicity in female BALB/c mouse implanted with mouse 4T1 cells assessed as heart damage at 10 mg/kg, iv; type: organism-based; conditions: in vivo
[17] = Toxicity in female BALB/c mouse implanted with mouse 4T1 cells assessed as heart abnormality at 10 mg/kg, iv; type: organism-based; conditions: in vivo
4T1 [18] = test: Antitumor activity against mouse 4T1 cells implanted in female BALB/c mouse assessed as increase in 4-HNE level in tumor at 10 mg/kg, iv administered upto 5 days by Western blot analysis; type: functional, organism-based; conditions: time <= 5.0 day
[19] = Toxicity in female BALB/c mouse implanted with mouse 4T1 cells assessed as kidney abnormality at 10 mg/kg, iv; type: organism-based; conditions: in vivo
4T1 [20] = test: Antitumor immunity against mouse 4T1 cells implanted in female BALB/c mouse model assessed as increase in ratio of CD8+ T cells to CD4+ T cells at 10 mg/kg, iv administered upto 5 days by flow cytometry analysis; type: functional, organism-based; conditions: time <= 5.0 day
[21] = Toxicity in female BALB/c mouse implanted with mouse 4T1 cells assessed as spleen damage at 10 mg/kg, iv; type: organism-based; conditions: in vivo
[22] = Toxicity in female BALB/c mouse implanted with mouse 4T1 cells assessed as liver abnormality at 10 mg/kg, iv; type: organism-based; conditions: in vivo
Cisplatin-resistant 4T1 [23] = test: Antitumor activity against mouse Cisplatin-resistant 4T1 cells implanted in female BALB/c mouse assessed as reduction in tumor weight at 10 mg/kg, ip; type: functional, organism-based
4T1 [24] = test: Antitumor activity against mouse 4T1 cells implanted in female BALB/c mouse assessed as induction of intracellular ROS accumulation in tumor at 10 mg/kg, iv administered upto 5 days; type: functional, organism-based; conditions: time <= 5.0 day
MDA-MB-468 [25] = test: Inhibition of cell migration in human MDA-MB-468 cells assessed as decrease in cell migration at 25 nM incubated for 48 hrs by wound healing assay; type: functional, cell-based
MDA-MB-468 [26] = test: Induction of ROS production in human MDA-MB-468 cells assessed as increase in fluorescent signal at 25 nM incubated for 6 hrs in presence of N-acetyl cysteine by DCFH-DA staining based flow cytometry analysis; type: functional, cell-based
[27] = Toxicity in female BALB/c mouse implanted with mouse 4T1 cells assessed as liver lesion at 10 mg/kg, iv; type: organism-based; conditions: in vivo
[28] = Toxicity in female BALB/c mouse implanted with mouse 4T1 cells assessed as lung damage at 10 mg/kg, iv; type: organism-based; conditions: in vivo
[29] = Toxicity in female BALB/c mouse implanted with mouse 4T1 cells assessed as lung inflammation at 10 mg/kg, iv; type: organism-based; conditions: in vivo
4T1 [30] = test: Antitumor activity against mouse 4T1 cells implanted in female BALB/c mouse model assessed as increase in cleaved caspase-3 level in tumor at 10 mg/kg, iv administered upto 5 days; type: functional, organism-based; conditions: time <= 5.0 day
4T1 [31] = test: Antitumor activity against mouse 4T1 cells implanted in female BALB/c mouse assessed as tumor growth inhibition at 10 mg/kg, iv administered upto 5 days; type: functional, organism-based; conditions: time <= 5.0 day
MDA-MB-468 [32] = test: Antiproliferative activity against human MDA-MB-468 cells assessed as cell viability at 10 nM incubated for 48 hrs by MTT assay; type: functional, cell-based
4T1 [33] = test: Antitumor activity against mouse 4T1 cells implanted in female BALB/c mouse model assessed as increase in TNF-alpha expression in tumor at 10 mg/kg, iv administered upto 5 days; type: functional, organism-based; conditions: time <= 5.0 day
4T1 [34] = test: Antitumor activity against mouse 4T1 cells implanted in female BALB/c mouse assessed as reduction in tumor weight at 10 mg/kg, iv administered upto 5 days; type: functional, organism-based; conditions: time <= 5.0 day
4T1 [35] = test: Antitumor activity against mouse 4T1 cells implanted in female BALB/c mouse assessed as reduction in tumor volume at 10 mg/kg, iv administered upto 5 days; type: functional, organism-based; conditions: time <= 5.0 day
4T1 [36] = test: Antitumor activity against mouse 4T1 cells implanted in female BALB/c mouse model assessed as increase in IFN-gamma expression in tumor at 10 mg/kg, iv administered upto 5 days; type: functional, organism-based; conditions: time <= 5.0 day
A549 = test: Antiproliferative activity against human A549 cells assessed as cell viability at 10 nM incubated for 48 hrs by MTT assay; type: functional, cell-based
4T1 [37] = test: Antitumor activity against mouse 4T1 cells implanted in female BALB/c mouse model assessed as reduction in proportion of CD11b+ IL-6+ cells in tumor at 10 mg/kg, iv administered upto 5 days; type: functional, organism-based; conditions: time <= 5.0 day

## CCCCCCC[C@@H]1CC(=O)N[C@H](Cc2ccccc2)C(=O)N[C@H]2CSSC[C@H](NC2=O)C(=O)O1
MDA-MB-468 [1]
  Activity: Active
[2]
  Activity: Non-toxic
[3]
  Activity: Non-toxic
[4]
  Activity: Non-toxic
MDA-MB-468 [5]
  Activity: Active
4T1 [6]
  Activity: Active
Cisplatin-resistant 4T1 [7]
  Activity: Active
MDA-MB-468 [8]
  Activity: Time-dependent-effect
Cisplatin-resistant 4T1 [9]
  Activity: Active
4T1 [10]
  Activity: Active
MDA-MB-468 [11]
  Activity: Active
MDA-MB-468 [12]
  Activity: Active
4T1 [13]
  Activity: Active
[14]
  Activity: Non-toxic
MDA-MB-468 [15]
  Activity: Active
[16]
  Activity: Non-toxic
[17]
  Activity: Non-toxic
4T1 [18]
  Activity: Active
[19]
  Activity: Non-toxic
4T1 [20]
  Activity: Active
[21]
  Activity: Non-toxic
[22]
  Activity: Non-toxic
Cisplatin-resistant 4T1 [23]
  Activity: Active
4T1 [24]
  Activity: Active
MDA-MB-468 [25]
  inhibition: Active
MDA-MB-468 [26]
  Activity: Active
[27]
  Activity: Non-toxic
[28]
  Activity: Non-toxic
[29]
  Activity: Non-toxic
4T1 [30]
  Activity: Active
4T1 [31]
  TGI: Active
MDA-MB-468 [32]
  Activity: Active
4T1 [33]
  Activity: Active
4T1 [34]
  Activity: Active
4T1 [35]
  Activity: Active
4T1 [36]
  Activity: Active
A549
  Activity: Active
4T1 [37]
  Activity: Active

— ChEMBL document CHEMBL6078706, “Deciphering the Comprehensive Structure-Activity Relationship of Sunshinamide for Breast Cancer Therapy through Dual Modulation of Apoptotic and Ferroptotic Pathways via TrxR1 and Gpx4 Inhibition” (J Med Chem, 2024)
